Assay results from ChEMBL document CHEMBL4033771, “Development of Potent Myostatin Inhibitory Peptides through Hydrophobic Residue-Directed Structural Modification” (ACS Med Chem Lett, 2017).
The source made the active and inactive calls. The calls are words filed in the database; no cut-off is given here. Where a SMILES comes first, the peptide text is derived from it. The star is where a group is joined. Acetyl(2-naphthyloxy) = O=C(COc1ccc2ccccc2c1)*

How the values were obtained:
Mus musculus [1] = assay: Increase in gastrocnemius muscle fiber size in mdx mouse at 0.75 mM, im administered on day 0 and 14 measured on day 42 by Hematoxylin and Eosin staining based assay; assay type: functional, organism-based
Mus musculus [2] = assay: Increase in tibialis anterior muscle weight in mdx mouse at 0.75 mM, im administered on day 0 and 14 measured on day 42 relative to control; assay type: functional
Mus musculus [3] = assay: Increase in tibialis anterior muscle weight in wild type ICR mouse at 0.75 mM, im administered on day 0 and 14 measured on day 42 relative to control; assay type: functional
Mus musculus [4] = assay: Increase in gastrocnemius muscle weight in wild type ICR mouse at 0.75 mM, im administered on day 0 and 14 measured on day 42 relative to control; assay type: functional
Mus musculus [5] = assay: Increase in tibialis anterior muscle weight in caveolin 3-deficient limb gridle muscular destrophy 1C mouse model at 20 nmol, im after 28 days relative to control; assay type: functional
Mus musculus [6] = assay: Increase in tibialis anterior muscle weight in wild type mouse at 20 nmol, im after 28 days relative to control; assay type: functional

For `CC[C@H](C)[C@H](NC(=O)[C@H](CCCNC(=N)N)NC(=O)[C@H](CO)NC(=O)[C@H](Cc1ccc(O)cc1)NC(=O)[C@H](CCCNC(=N)N)NC(=O)[C@@H](NC(=O)[C@H](CC(N)=O)NC(=O)[C@H](CCC(N)=O)NC(=O)[C@H](CCCNC(=N)N)NC(=O)COc1ccc2ccccc2c1)[C@@H](C)O)C(=O)N[C@@H](CCC(=O)O)C(=O)N[C@@H](Cc1c[nH]c2ccccc12)C(=O)N[C@H](C(=O)N[C@@H](CCCCN)C(=O)N[C@H](C(=O)N[C@@H](CCC(N)=O)C(=O)N[C@H](C(=O)N[C@H](C(=O)N[C@@H](CO)C(=O)N[C@@H](CCCCN)C(=O)N[C@@H](CC(C)C)C(=O)N[C@@H](CCCNC(=N)N)C(=O)N[C@@H](CC(C)C)C(N)=O)[C@@H](C)CC)[C@@H](C)CC)[C@@H](C)CC)[C@@H](C)CC` ({Acetyl(2-naphthyloxy)}-RQNTRYSRIEWIKIQIISKLRL-NH2), the Activity (Mus musculus [1]) was “Active”, the Activity (Mus musculus [2]) was 10 - 19% and the Activity (Mus musculus [3]) was 10 - 34%. The Activity (Mus musculus [4]) was 11 - 35%.
Work on `CC[C@H](C)[C@H](NC(=O)[C@H](C)NC(=O)[C@H](CCC(=O)O)NC(=O)[C@@H](NC(=O)[C@H](CCCNC(=N)N)NC(=O)[C@H](CO)NC(=O)[C@H](Cc1ccc(O)cc1)NC(=O)[C@H](CCCNC(=N)N)NC(=O)[C@@H](NC(=O)[C@H](CC(N)=O)NC(=O)[C@H](CCC(N)=O)NC(=O)[C@H](CCCNC(=N)N)NC(=O)[C@H](Cc1c[nH]c2ccccc12)NC(=O)[C@H](C)NC(=O)[C@@H](N)CS)[C@@H](C)O)[C@@H](C)CC)C(=O)N[C@@H](CCCCN)C(=O)N[C@H](C(=O)N[C@@H](CCC(N)=O)C(=O)N[C@H](C(=O)N[C@@H](CC(C)C)C(=O)N[C@@H](CO)C(=O)N[C@@H](CCCCN)C(=O)N[C@@H](CC(C)C)C(=O)N[C@@H](CCCNC(=N)N)C(=O)N[C@@H](CC(C)C)C(=O)N[C@@H](CCC(=O)O)C(=O)N[C@H](C(=O)N[C@@H](C)C(=O)N1CCC[C@H]1C(N)=O)[C@@H](C)O)[C@@H](C)CC)[C@@H](C)CC` (H-CAWRQNTRYSRIEAIKIQILSKLRLETAP-NH2) yielded an Activity (Mus musculus [5]) of 20.6% and an Activity (Mus musculus [6]) of 10.6%.
